Key:
[1] = tested on: black bean aphids (Aphis fabae); assay: Black bean aphid root-systemic test: solution pipetted into the bottle holding the field bean roots; format: in vivo; details: read-out: mortality of the aphids owing to the root-systemic activity
Protocol: Pregerminated field bean seeds (Vicia faba) with seminal roots were transferred into amber glass bottles filled with tap water. Four milliliters of an aqueous solution of the formulated preparation to be tested were pipetted into the amber glass bottle. Then, the field bean was infested with approx. 100 black bean aphids (Aphis fabae). The plant and animals were then stored in a controlled-environment cabinet (16 hours light/day, 25° C., 40-60% atmospheric humidity). After storage for 3 and 6 days, the root-systemic action of the preparation on the aphids was determined. At a concentration of 300 ppm (based on active substance content), the preparations of Examples No. 1, 8, 20, 28, 30, 34, 36, 40, 52, 54, 56, 58, 118, 138, 146, 148, 154, 158, 176, 184, 368, 369, 370 caused 90-100% mortality of the aphids owing to the root-systemic activity.

[2] = tested on: black bean aphids (Aphis fabae); assay: Black bean aphid test: plants and aphids immersed in solution of the formulated preparation; format: in vivo; details: read-out: mortality of the aphids
Protocol: Pregerminated field bean seeds (Vicia faba) with seminal roots were transferred into amber glass bottles filled with tap water and then populated with approximately 100 black bean aphids (Aphis fabae). The plants and aphids were then immersed for 5 seconds in an aqueous solution of the formulated preparation to be tested. After the solution had been allowed to run off, the plants and animals were stored in a controlled-environment cabinet (16 hours light/day, 25° C., 40-60% atmospheric humidity). After storage for 3 and 6 days, the effect of the preparation on the aphids was determined.

**Q.** How did the mortality at 300 ppm [1] turn out when FC(F)(F)c1ccncc1-c1nc(CC2OCCCO2)no1 [Example 8, 3-(1,3-Dioxan-2-ylmethyl)-5-(4-trifluoromethyl-3-pyridyl)-1,2,4-oxadiazole] was run?
**A.** 90 to 100%

**Q.** What about the mortality at 300 ppm [2] of the same compound?
**A.** 90 to 100%

— patent US20020132813A1, “Heterocyclylalkylazole derivatives and their use as pesticides” (priority 2000, published 2002)
